Activity calls are given as the source filed them. The rule behind the calls is not given here.
Tests used:
[1] = AUC (0 to t) in Han Wistar rat at 5 mg/kg, po by LC-MS/MS analysis; assay type: ADME, organism-based; conditions: in vivo
[2] = Oral availability in Han Wistar rat at 5 mg/kg by LC-MS/MS analysis; assay type: ADME, organism-based; conditions: in vivo
[3] = AUC (0 to infinity) in Han Wistar rat at 5 mg/kg, po by LC-MS/MS analysis; assay type: ADME, organism-based; design: dose 5 mg/kg, time infinity, route oral; conditions: in vivo
[4] = Tmax in Han Wistar rat at 5 mg/kg, po by LC-MS/MS analysis; assay type: ADME, organism-based; conditions: in vivo
[5] = Half life in Han Wistar rat at 5 mg/kg, po by LC-MS/MS analysis; assay type: ADME, organism-based; conditions: in vivo
[6] = Cmax in Han Wistar rat at 5 mg/kg, po by LC-MS/MS analysis; assay type: ADME, organism-based; design: dose 5 mg/kg, route oral; conditions: in vivo
[7] = biological target: T1, Nonstructural protein 5A (Hepatitis C virus) (UniProt Q5L478); test: Inhibition of HCV NS5A infected in HuH-Lcu-Neo cells assessed as reduction in viral replication in presence of ribavirin incubated for 48 hrs by luciferase reporter gene assay; assay type: cell-based; conditions: Hepacivirus hominis
T1 sequence (whole entry): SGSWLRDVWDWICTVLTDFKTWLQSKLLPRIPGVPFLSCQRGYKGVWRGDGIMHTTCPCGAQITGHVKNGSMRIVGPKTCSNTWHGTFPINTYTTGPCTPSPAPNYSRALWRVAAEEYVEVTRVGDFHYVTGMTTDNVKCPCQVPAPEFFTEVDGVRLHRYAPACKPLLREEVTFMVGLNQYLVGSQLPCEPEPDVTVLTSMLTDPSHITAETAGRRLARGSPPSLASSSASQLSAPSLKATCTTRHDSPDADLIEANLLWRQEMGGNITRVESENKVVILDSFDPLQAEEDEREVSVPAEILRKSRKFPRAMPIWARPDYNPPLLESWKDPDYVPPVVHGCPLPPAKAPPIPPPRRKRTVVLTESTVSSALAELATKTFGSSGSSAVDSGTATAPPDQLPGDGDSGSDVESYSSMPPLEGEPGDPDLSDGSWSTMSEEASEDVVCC

[8] = biological target: T1, Nonstructural protein 5A (Hepatitis C virus); test: Inhibition of HCV genotype 2a con NS5A infected in HuH-Lcu-Neo cells assessed as fold reduction in virus RNA level at 10 times of EC90 incubated for 21 days by luciferase reporter gene assay; assay type: cell-based; conditions: Hepatitis C virus subtype 2a
[9] = biological target: T1, Nonstructural protein 5A (Hepatitis C virus); test: Inhibition of HCV genotype 1a NS5A infected in HuH-Lcu-Neo cells assessed as log reduction in virus RNA level at 10 times of EC90 incubated for 21 days by luciferase reporter gene assay; assay type: cell-based; conditions: Hepatitis C virus subtype 1a
[10] = biological target: T1, Nonstructural protein 5A (Hepatitis C virus); test: Potency index, ratio of EC50 of DCV to EC50 of compound for inhibition of HCV genotype 3a con NS5A infected in HuH-Lcu-Neo cells assessed as reduction in viral replication incubated for 48 hrs by luciferase reporter gene assay; assay type: cell-based; conditions: Hepatitis C virus subtype 3a
[11] = biological target: T1, Nonstructural protein 5A (Hepatitis C virus); test: Inhibition of HCV NS5A infected in HuH-Lcu-Neo cells assessed as reduction in viral replication in presence of BILN2061 incubated for 48 hrs by luciferase reporter gene assay; assay type: cell-based; conditions: Hepacivirus hominis
[12] = biological target: T1, Nonstructural protein 5A (Hepatitis C virus); test: Inhibition of HCV genotype 1b NS5A infected in HuH-Lcu-Neo cells assessed as log reduction in virus RNA level at 10 times of EC90 incubated for 21 days by luciferase reporter gene assay; assay type: cell-based; conditions: Hepatitis C virus subtype 1b
[13] = biological target: T1, Nonstructural protein 5A (Hepatitis C virus); test: Inhibition of HCV NS5A infected in HuH-Lcu-Neo cells assessed as reduction in viral replication in presence of NM107 incubated for 48 hrs by luciferase reporter gene assay; assay type: cell-based; conditions: Hepacivirus hominis
[14] = biological target: T1, Nonstructural protein 5A (Hepatitis C virus); test: Inhibition of HCV NS5A infected in HuH-Lcu-Neo cells assessed as reduction in viral replication in presence of NNI incubated for 48 hrs by luciferase reporter gene assay; assay type: cell-based; conditions: Hepacivirus hominis
[15] = biological target: T1, Nonstructural protein 5A (Hepatitis C virus); test: Potency index, ratio of EC50 of DCV to EC50 of compound for inhibition of patient-derived HCV genotype 3a NS5A infected in HuH-Lcu-Neo cells assessed as reduction in viral replication incubated for 48 hrs by luciferase reporter gene assay; assay type: cell-based; conditions: Hepatitis C virus subtype 3a
[16] = biological target: T1, Nonstructural protein 5A (Hepatitis C virus); test: Potency index, ratio of EC50 of DCV to EC50 of compound for inhibition of HCV genotype 2a con NS5A infected in HuH-Lcu-Neo cells assessed as reduction in viral replication incubated for 48 hrs by luciferase reporter gene assay; assay type: cell-based; conditions: Hepatitis C virus subtype 2a
[17] = biological target: T1, Nonstructural protein 5A (Hepatitis C virus); test: Inhibition of HCV genotype 3a con NS5A infected in HuH-Lcu-Neo cells assessed as fold reduction in virus RNA level at 10 times of EC90 incubated for 21 days by luciferase reporter gene assay; assay type: cell-based; conditions: Hepatitis C virus subtype 3a
[18] = biological target: T1, Nonstructural protein 5A (Hepatitis C virus); test: Potency index, ratio of EC50 of DCV to EC50 of compound for inhibition of patient-derived HCV genotype 2a NS5A infected in HuH-Lcu-Neo cells assessed as reduction in viral replication incubated for 48 hrs by luciferase reporter gene assay; assay type: cell-based; conditions: Hepatitis C virus subtype 2a
[19] = biological target: T1, Nonstructural protein 5A (Hepatitis C virus); test: Potency index, ratio of EC50 of cpd1 to EC50 of compound for inhibition of HCV genotype 2a con NS5A infected in HuH-Lcu-Neo cells assessed as reduction in viral replication incubated for 48 hrs by luciferase reporter gene assay; assay type: cell-based; conditions: Hepatitis C virus subtype 2a
[20] = Half life in CD1 mouse at 5 mg/kg, po by LC-MS/MS analysis; assay type: ADME, organism-based; conditions: in vivo
[21] = Half life in Han Wistar rat at 1 mg/kg, iv by LC-MS/MS analysis; assay type: ADME, organism-based; conditions: in vivo
[22] = AUC (0 to t) in CD1 mouse at 5 mg/kg, po by LC-MS/MS analysis; assay type: ADME, organism-based; conditions: in vivo
[23] = AUC (0 to infinity) in CD1 mouse at 1 mg/kg, iv by LC-MS/MS analysis; assay type: ADME, organism-based; design: dose 1 mg/kg, time infinity, route intravenous; conditions: in vivo
[24] = AUC (0 to t) in Han Wistar rat at 1 mg/kg, iv by LC-MS/MS analysis; assay type: ADME, organism-based; conditions: in vivo
[25] = Tmax in Beagle dog at 1 mg/kg, po by LC-MS/MS analysis; assay type: ADME, organism-based, Canis lupus familiaris; conditions: in vivo
[26] = Volume of distribution at steady state in CD1 mouse at 1 mg/kg, iv by LC-MS/MS analysis; assay type: ADME, organism-based; conditions: in vivo, read-out: Vdss
[27] = Volume of distribution at steady state in Beagle dog at 1 mg/kg, iv by LC-MS/MS analysis; assay type: ADME, organism-based, Canis lupus familiaris; conditions: in vivo, read-out: Vdss
[28] = Oral bioavailability in Beagle dog at 1 mg/kg by LC-MS/MS analysis; assay type: ADME, organism-based, Canis lupus familiaris; conditions: in vivo
[29] = AUC (0 to infinity) in Beagle dog at 1 mg/kg, po by LC-MS/MS analysis; assay type: ADME, organism-based, Canis lupus familiaris; design: dose 1 mg/kg, route oral, time infinity; conditions: in vivo
[30] = AUC (0 to t) in CD1 mouse at 1 mg/kg, iv by LC-MS/MS analysis; assay type: ADME, organism-based; conditions: in vivo
[31] = Clearance in Han Wistar rat at 1 mg/kg, iv by LC-MS/MS analysis; assay type: ADME, organism-based; conditions: in vivo
[32] = Half life in Beagle dog at 1 mg/kg, po by LC-MS/MS analysis; assay type: ADME, organism-based, Canis lupus familiaris; conditions: in vivo
[33] = Half life in Beagle dog at 1 mg/kg, iv by LC-MS/MS analysis; assay type: ADME, organism-based, Canis lupus familiaris; conditions: in vivo
[34] = Tmax in CD1 mouse at 5 mg/kg, po by LC-MS/MS analysis; assay type: ADME, organism-based; conditions: in vivo
[35] = AUC (0 to t) in Beagle dog at 1 mg/kg, iv by LC-MS/MS analysis; assay type: ADME, organism-based, Canis lupus familiaris; conditions: in vivo
[36] = AUC (0 to infinity) in Beagle dog at 1 mg/kg, iv by LC-MS/MS analysis; assay type: ADME, organism-based, Canis lupus familiaris; design: dose 1 mg/kg, route intravenous, time infinity; conditions: in vivo
[37] = Half life in CD1 mouse at 1 mg/kg, iv by LC-MS/MS analysis; assay type: ADME, organism-based; conditions: in vivo
[38] = AUC (0 to t) in Beagle dog at 1 mg/kg, po by LC-MS/MS analysis; assay type: ADME, organism-based, Canis lupus familiaris; conditions: in vivo
[39] = Cmax in CD1 mouse at 5 mg/kg, po by LC-MS/MS analysis; assay type: ADME, organism-based; design: dose 5 mg/kg, route oral; conditions: in vivo
[40] = AUC (0 to infinity) in Han Wistar rat at 1 mg/kg, iv by LC-MS/MS analysis; assay type: ADME, organism-based; design: dose 1 mg/kg, time infinity, route intravenous; conditions: in vivo
[41] = Volume of distribution at steady state in Han Wistar rat at 1 mg/kg, iv by LC-MS/MS analysis; assay type: ADME, organism-based; conditions: in vivo, read-out: Vdss
[42] = Cmax in Beagle dog at 1 mg/kg, po by LC-MS/MS analysis; assay type: ADME, organism-based, Canis lupus familiaris; design: dose 1 mg/kg, route oral; conditions: in vivo
[43] = AUC (0 to infinity) in CD1 mouse at 5 mg/kg, po by LC-MS/MS analysis; assay type: ADME, organism-based; design: dose 5 mg/kg, route oral, time infinity; conditions: in vivo
[44] = Oral bioavailability in CD1 mouse at 5 mg/kg by LC-MS/MS analysis; assay type: ADME, organism-based; conditions: in vivo
[45] = Clearance in CD1 mouse at 1 mg/kg, iv by LC-MS/MS analysis; assay type: ADME, organism-based; conditions: in vivo
[46] = Clearance in Beagle dog at 1 mg/kg, iv by LC-MS/MS analysis; assay type: ADME, organism-based, Canis lupus familiaris; conditions: in vivo

COC(=O)N[C@H](C(=O)N1[C@H](c2ncc(-c3ccc4c(c3)-c3ccc(-c5cnc([C@@H]6C[C@@H]7CCC[C@@H]7N6C(=O)[C@@H](NC(=O)OC)[C@@H](C)OC)[nH]5)cc3-4)[nH]2)C[C@@H]2CCC[C@@H]21)[C@@H](C)OC.Cl
AUC(0-t) [1]: 1250 ng·h/mL
bioavailability [2]: 41%
AUC(0-inf) [3]: 1260 ng·h/mL
Tmax [4]: 1.5 h
half-life [5]: 1.7 h
Cmax [6]: 258 ng/mL

COC(=O)N[C@H](C(=O)N1[C@H](c2ncc(-c3ccc4c(c3)-c3ccc(-c5cnc([C@@H]6C[C@@H]7CCC[C@@H]7N6C(=O)[C@@H](NC(=O)OC)[C@@H](C)OC)[nH]5)cc3-4)[nH]2)C[C@@H]2CCC[C@@H]21)[C@@H](C)OC [listing 1 of 2 here]
inhibition [7]: inactive
fold change (FC) [8]: 1.8 to 3.1
FC [9]: 1.8 to 3.1
Ratio EC50 [10]: 20
inhibition [11]: inactive
FC [12]: > 5
inhibition [13]: inactive
inhibition [14]: inactive
Ratio EC50 [15]: 37
Ratio EC50 [16]: 462
fold change (FC) [17]: 1.8 to 3.1
Ratio EC50 [18]: 74

CN(C)[C@@H](C(=O)N1CCC[C@H]1c1ncc(-c2ccc3c(c2)-c2ccc(-c4cnc([C@@H]5CCCN5C(=O)[C@@H](c5ccccc5)N(C)C)[nH]4)cc2-3)[nH]1)c1ccccc1
Ratio EC50 [19]: 98

COC(=O)N[C@H](C(=O)N1CCC[C@H]1c1ncc(-c2ccc3c(c2)-c2ccc(-c4cnc([C@@H]5CCCN5C(=O)[C@@H](c5ccccc5)N(C)C)[nH]4)cc2-3)[nH]1)C(C)C
Ratio EC50 [19]: 22

COC(=O)N[C@H](C(=O)N1[C@H](c2ncc(-c3ccc4c(c3)-c3ccc(-c5cnc([C@@H]6C[C@@H]7CCC[C@@H]7N6C(=O)[C@@H](NC(=O)OC)[C@@H](C)OC)[nH]5)cc3-4)[nH]2)C[C@@H]2CCC[C@@H]21)[C@@H](C)OC [listing 2 of 2 here]
half-life [20]: 1.7 h
half-life [21]: 1.5 h
AUC(0-t) [22]: 2490 ng·h/mL
AUC(0-inf) [23]: 1100 ng·h/mL
AUC(0-t) [24]: 498 ng·h/mL
Tmax [25]: 4 h
Vd [26]: 1.3 L/kg
Vd [27]: 1 L/kg
bioavailability [28]: 20%
AUC(0-inf) [29]: 633 ng·h/mL
AUC(0-t) [30]: 1070 ng·h/mL
clearance [31]: 33.8 mL/min/kg
half-life [32]: 6 h
half-life [33]: 5.2 h
AUC(0-t) [1]: 178 ng·h/mL
Tmax [34]: 2 h
bioavailability [2]: 9%
AUC(0-inf) [3]: 216 ng·h/mL
AUC(0-t) [35]: 3140 ng·h/mL
AUC(0-inf) [36]: 3180 ng·h/mL
half-life [37]: 1.7 h
AUC(0-t) [38]: 593 ng·h/mL
Cmax [39]: 506 ng/mL
AUC(0-inf) [40]: 501 ng·h/mL
Vd [41]: 1.3 L/kg
Cmax [42]: 99 ng/mL
Tmax [4]: 2 h
half-life [5]: 4.8 h
AUC(0-inf) [43]: 2550 ng·h/mL
Cmax [6]: 32 ng/mL
bioavailability [44]: 46%
clearance [45]: 15.4 mL/min/kg
clearance [46]: 5.3 mL/min/kg

From ChEMBL document CHEMBL4354870, “GSK2818713, a Novel Biphenylene Scaffold-Based Hepatitis C NS5A Replication Complex Inhibitor with Broad Genotype Coverage” (J Med Chem, 2020)
